Measured values: patent US9775904B2 (priority 2014, dated 2017)
Read-outs that look alike come from different tables or passages of the source.

Key:
[1] = target: T1, human GLP-1 receptor (hGLP-1 R) (Homo sapiens, UniProt P43220); assay: cAMP response of HEK-293 cells expressing human GLP-1 receptor (HTRF); type: cell-based; conditions: Table 6
T1 construct: expressed in transfected cells
Procedure: (§1) cAMP content of cells was determined using a kit from Cisbio Corp. (cat. no. 62AM4PEC) based on HTRF (Homogenous Time Resolved Fluorescence). For preparation, cells were split into T175 culture flasks and grown overnight to near confluency in medium (DMEM/10% FBS). Medium was then removed and cells washed with PBS lacking calcium and magnesium, followed by proteinase treatment with accutase (Sigma-Aldrich cat. no. A6964). Detached cells were washed and resuspended in assay buffer (1×HBSS; 20 mM HEPES, 0.1% BSA, 2 mM IBMX) and cellular density determined. They were then diluted to 400000 cells/ml and 25 μl-aliquots dispensed into the wells of 96-well plates. For measurement, 25 μl of test compound in assay buffer was added to the wells, followed by incubation for 30 minutes at room temperature.

[2] = target: T2, human glucagon receptor (hGlucagon R) (Homo sapiens, UniProt P47871); assay: cAMP response of HEK-293 cells expressing human glucagon receptor (HTRF); type: cell-based; conditions: Table 6
T2 construct: expressed in transfected cells
T2 sequence (P47871 26-477): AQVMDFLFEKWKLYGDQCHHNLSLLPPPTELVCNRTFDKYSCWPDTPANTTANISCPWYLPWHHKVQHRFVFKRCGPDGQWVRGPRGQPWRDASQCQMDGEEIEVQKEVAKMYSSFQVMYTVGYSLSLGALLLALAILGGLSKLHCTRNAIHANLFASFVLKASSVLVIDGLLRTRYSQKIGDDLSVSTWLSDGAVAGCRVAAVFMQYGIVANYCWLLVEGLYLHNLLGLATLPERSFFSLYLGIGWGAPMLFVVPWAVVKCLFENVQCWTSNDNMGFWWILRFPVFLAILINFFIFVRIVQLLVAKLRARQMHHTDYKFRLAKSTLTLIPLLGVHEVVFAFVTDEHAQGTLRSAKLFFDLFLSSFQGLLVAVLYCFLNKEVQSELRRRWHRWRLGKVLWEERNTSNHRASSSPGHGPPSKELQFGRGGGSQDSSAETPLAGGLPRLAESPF
Procedure: as §1

[3] = target: T3, human GIP receptor (hGIP-R) (Homo sapiens, UniProt P48546); assay: cAMP response of HEK-293 cells expressing human GIP receptor (HTRF); type: cell-based; conditions: Table 6; read-out: EC50 hGIP-R
T3 construct: expressed in transfected cells
T3 sequence (P48546 22-466): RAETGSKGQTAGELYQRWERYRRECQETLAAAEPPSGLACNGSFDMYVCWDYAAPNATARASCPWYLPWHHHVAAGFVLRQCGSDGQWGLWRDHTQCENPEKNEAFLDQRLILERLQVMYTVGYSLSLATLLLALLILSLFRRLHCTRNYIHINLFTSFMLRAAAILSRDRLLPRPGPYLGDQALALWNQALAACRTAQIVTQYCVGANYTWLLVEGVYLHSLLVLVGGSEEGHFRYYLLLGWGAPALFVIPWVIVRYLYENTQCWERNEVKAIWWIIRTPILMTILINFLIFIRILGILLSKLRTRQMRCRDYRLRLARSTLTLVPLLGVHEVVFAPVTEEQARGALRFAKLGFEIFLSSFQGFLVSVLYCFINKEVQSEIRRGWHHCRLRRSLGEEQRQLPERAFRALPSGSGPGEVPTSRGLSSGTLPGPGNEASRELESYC
Procedure: as §1

[4] = Solubility testing in buffer (HPLC-UV); type: physicochemical
Procedure: Prior to the testing of solubility and stability of a peptide batch, its purity (HPLC-UV) was determined.
. Therefore, solutions from solid samples were prepared in different buffer systems with a concentration of 10 mg/mL compound based on the previously determined % purity. HPLC-UV was performed after 2 h of gentle agitation from the supernatant, which was obtained by 20 min of centrifugation at 4500 rpm.
[…]. This analysis also served as starting point (t0) for the stability testing.

[5] = Pharmacokinetic testing in mice, s.c.; type: in vivo; conditions: mouse, plasma, sc, 1 mg/kg s.c.
Procedure: (§2) Mice were dosed 1 mg/kg subcutaneously (s.c.). The mice were sacrified and blood samples were collected after 0.25, 0.5, 1, 2, 4, 8, 16 and 24 hours post application. Plasma samples were analyzed after protein precipitation via liquid chromatography mass spectrometry (LC/MS). PK parameters and half-life were calculated using WinonLin Version 5.2.1 (non-compartment model).

[6] = Pharmacokinetic testing in Göttinger minipigs, s.c.; type: in vivo; conditions: female, minipig, plasma, sc, Mini pigs, 0.1 mg/kg s.c.
Procedure: as §2, with “Female Göttinger minipigs were” for “Mice were”, “dosed 0.1” for “dosed 1”, “(s.c.). Blood” for “(s.c.). The mice were sacrified and blood”, “8, 24, 32, 48, 56” for “8, 16”, “and 72” for “and 24”

[7] = Acute effect on blood glucose in fed female DIO C57BL/6 mice; type: in vivo; conditions: 50 μg/kg s.c.; t=1, 2, 3, 4, 6 and 24 h post dosing; p<0.0001
Procedure: (§3) C57BL/6 Harlan mice are housed in groups in a specific pathogen-free barrier facility on a 12 h light/dark cycle with free access to water and standard or high-fat diet. After prefeeding on high-fat diet, mice are stratified to treatment groups (n=8), so that each group has similar mean body weight. An age-matched group with ad-libitum access to standard chow is included as standard control group. Before the experiment, mice are subcutaneously (s.c.) injected with vehicle solution and weighed for 3 days to acclimate them to the procedures.
1) Acute effect on blood glucose in fed female DIO mice: initial blood samples are taken just before first administration (s.c.) of vehicle (phosphate buffer solution) or the exendin-4 derivatives (dissolved in phosphate buffer), respectively. The volume of administration is 5 mL/kg. The animals have access to water and their corresponding diet during the experiment. Blood glucose levels are measured at t=0 h, t=1 h, t=2 h, t=3 h, t=4 h, t=6 h and t=24 h (method: Accu-Check glucometer). Blood sampling is performed by tail incision without anaesthesia.
(§4) Statistical analyses are performed with Everstat 6.0 by repeated measures two-way ANOVA and Dunnetts post-hoc analyses (glucose profile) and 1-way-ANOVA, followed by Dunnetts post-hoc test (body weight, body fat). Differences versus vehicle-treated DIO control mice are considered statistically significant at the p<0.05 level.
At predefined time points, more blood samples were taken to measure blood glucose and generate the blood glucose profile over 24 h.

[8] = Chronic effect on body weight and body fat in female DIO C57BL/6 mice, 4 weeks; type: in vivo; conditions: 50 μg/kg bid s.c.; for Day on which significant body weight decrease begins / Daily body weight compared to vehicle DIO control mice: 4 weeks; for Day on which significant body weight decrease begins: continuing through the end of the study; for Daily body weight compared to vehicle DIO control mice: p>0.0001 by the end of the study (so in the source); for Body fat change / Overall weight change: DIO mice, 4-week treatment, mean ± SEM; for Body fat change: NMR
Procedure: as §3
2) Chronic effect on body weight in female DIO mice: mice are treated once (s.c. in evening hours) or twice daily (s.c. in the morning and in the evening), respectively, at the beginning and the end of the light phase with either vehicle or exendin-4 derivatives for 4 weeks. Body weight is recorded daily. Two days before start of treatment and on day 26, total fat mass is measured by nuclear magnetic resonance (NMR).
as §4
Body weight was recorded daily, and body fat content was determined before the start and after 4 weeks of treatment. […] These changes resulted from a decrease in body fat, as shown by the absolute changes in body fat content (Table 10, FIG. 3).
Body weight was recorded daily, and body fat content was determined before the start and after 4 weeks of treatment.

[9] = pH 4.5, target concentration 10 mg/ml, read-out: solubility [mg/ml] pH 4.5
[10] = pH 7.4, target concentration 10 mg/ml, read-out: solubility [mg/ml] pH 7.4

T1 sequence (P43220 24-463): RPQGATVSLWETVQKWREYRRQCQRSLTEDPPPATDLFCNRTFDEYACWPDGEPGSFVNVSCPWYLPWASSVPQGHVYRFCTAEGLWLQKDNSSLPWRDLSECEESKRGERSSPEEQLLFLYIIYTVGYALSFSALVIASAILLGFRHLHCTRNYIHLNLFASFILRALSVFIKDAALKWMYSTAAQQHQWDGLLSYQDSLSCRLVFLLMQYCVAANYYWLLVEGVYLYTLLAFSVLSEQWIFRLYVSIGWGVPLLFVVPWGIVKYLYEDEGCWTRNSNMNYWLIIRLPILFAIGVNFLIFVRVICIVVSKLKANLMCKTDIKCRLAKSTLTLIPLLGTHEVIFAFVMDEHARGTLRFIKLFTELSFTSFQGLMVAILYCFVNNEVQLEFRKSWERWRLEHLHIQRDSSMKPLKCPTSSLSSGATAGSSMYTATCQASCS

| Compound | EC50 [1] [nM] | EC50 [2] [nM] | EC50 [3] [nM] | solubility at 2 h [4, 9] [mg/mL] | solubility at 2 h [4, 10] [mg/mL] | Cmax [5] [ng/mL] | half-life [5] [h] | Cmax [6] [ng/mL] | half-life [6] [h] | Blood glucose compared to DIO control mice [7] | Day on which significant body weight decrease begins [8] [days] | Daily body weight compared to vehicle DIO control mice [8] | Body fat change [8] [g] | Overall weight change [8] [g] |
| --- | --- | --- | --- | --- | --- | --- | --- | --- | --- | --- | --- | --- | --- | --- |
| CCCCCCCCCCCCCCCC(=O)N[C@@H](CCC(=O)N[C@@H](CCC(=O)NCCCC[C@H](NC(=O)[C@H](CCC(N)=O)NC(=O)[C@H](CCCCN)NC(=O)[C@H](CO)NC(=O)[C@H](CC(C)C)NC(=O)[C@H](CC(=O)O)NC(=O)[C@H](CO)NC(=O)[C@@H](NC(=O)[C@H](Cc1ccccc1)NC(=O)[C@@H](NC(=O)CNC(=O)[C@H](CCC(N)=O)NC(=O)C(C)(C)NC(=O)[C@@H](N)Cc1c[nH]cn1)[C@@H](C)O)[C@@H](C)O)C(=O)N[C@@H](CC(=O)O)C(=O)N[C@@H](CCC(=O)O)C(=O)N[C@@H](CCC(N)=O)C(=O)N[C@@H](CCCNC(=N)N)C(=O)N[C@@H](C)C(=O)N[C@@H](CCCCN)C(=O)N[C@@H](CC(C)C)C(=O)N[C@@H](Cc1ccccc1)C(=O)N[C@H](C(=O)N[C@@H](CCC(=O)O)C(=O)N[C@@H](Cc1c[nH]c2ccccc12)C(=O)N[C@@H](CC(C)C)C(=O)NC(C)(C)C(=O)N[C@@H](C)C(=O)N[C@H](C)C(=O)NCC(=O)N1CCC[C@H]1C(=O)N[C@@H](CO)C(=O)N[C@@H](CO)C(=O)NCC(=O)N[C@@H](C)C(=O)N1CCC[C@H]1C(=O)N1CCC[C@H]1C(=O)N1CCC[C@H]1C(=O)N[C@@H](CO)C(N)=O)[C@@H](C)CC)C(=O)O)C(=O)O [SEQ ID NO: 7, H-Aib-Q-G-T-F-T-S-D-L-S-K-Q-K(γE-γE-x53)-D-E-Q-R-A-K-L-F-I-E-W-L-Aib-A-dAla-G-P-S-S-G-A-P-P-P-S-NH2] | 0.0034 | 0.101 | 7.62 | > 8 | > 8 | 5510 | 3.1 | 667 | 29 | significant decrease in blood glucose | 7 | statistically significant decrease | -3.73 ± 0.8 | -5.49 ± 0.9 |
| CCCCCCCCCCCCCCCC(=O)N[C@@H](CCC(=O)N[C@@H](CCC(=O)NCCCC[C@H](NC(=O)[C@H](CCC(N)=O)NC(=O)[C@H](CCCCN)NC(=O)[C@H](CO)NC(=O)[C@H](CC(C)C)NC(=O)[C@H](CC(=O)O)NC(=O)[C@H](CO)NC(=O)[C@@H](NC(=O)[C@H](Cc1ccccc1)NC(=O)[C@@H](NC(=O)CNC(=O)[C@H](CCC(N)=O)NC(=O)C(C)(C)NC(=O)[C@@H](N)Cc1c[nH]cn1)[C@@H](C)O)[C@@H](C)O)C(=O)N[C@@H](CC(=O)O)C(=O)N[C@@H](CCC(=O)O)C(=O)N[C@@H](CCC(N)=O)C(=O)N[C@@H](CCCNC(=N)N)C(=O)N[C@@H](C)C(=O)N[C@@H](CCCCN)C(=O)N[C@@H](CC(C)C)C(=O)N[C@@H](Cc1ccccc1)C(=O)N[C@H](C(=O)N[C@@H](CCC(=O)O)C(=O)N[C@@H](Cc1c[nH]c2ccccc12)C(=O)N[C@@H](CC(C)C)C(=O)NC(C)(C)C(=O)N[C@@H](C)C(=O)NCC(=O)NCC(=O)N1CCC[C@H]1C(=O)N[C@@H](CO)C(=O)N[C@@H](CO)C(=O)NCC(=O)N[C@@H](C)C(=O)N1CCC[C@H]1C(=O)N1CCC[C@H]1C(=O)N1CCC[C@H]1C(=O)N[C@@H](CO)C(N)=O)[C@@H](C)CC)C(=O)O)C(=O)O [SEQ ID NO: 8, H-Aib-Q-G-T-F-T-S-D-L-S-K-Q-K(γE-γE-x53)-D-E-Q-R-A-K-L-F-I-E-W-L-Aib-A-G-G-P-S-S-G-A-P-P-P-S-NH2] | 0.0023 | 0.0281 | 2.14 | > 8 | > 8 | 4360 | 3.8 | 476 | 18.1 | significant decrease in blood glucose | 5 | reduced body weight significantly | -3.81 ± 0.6 | -5.38 ± 0.5 |
